# US20250368932A1, “SYSTEM FOR MIMICKING CELLULAR MICROENVIRONMENT AND METHOD FOR EVALUATING CELL DEVELOPMENT OR DRUG THERAPY EFFECTIVENESS USING THE SAME” (Anivance AI Corporation, priority 2024, published 2025)
# Legend:
# [1] = test system: Non-Small Cell Lung Cancer Tumor Spheroids (co-cultured cell spheroids, A549 / HFL-1); assay: Morphology and area of tumor spheroids after drug administration on the chip (bright-field, quantified); format: cell-based, human
# Protocol: In some embodiments, the A549 cell line of the present disclosure is purchased from ATCC, and is commonly used for developing lung cancer drugs and drug delivery experiments. The A549 cells are cultured in F12K cell culture medium (10-025, Corning) supplemented with 10% fetal bovine serum (FBS) (35-076-EV, Corning). The cells are taken out from the liquid nitrogen tank and thawed in a […] water bath. The cell suspension in the cryovial is extracted and mixed with 1 mL of cell culture medium, followed by adding it to a T-75 cell culture flask containing 9 mL of cell culture medium for uniform mixing and culture. When cell confluence reaches 80%, cell passaging is carried out. Cells are first rinsed with DPBS and then detached from the T-75 cell culture flask using trypsin. The detached A549 cells are transferred to a 15 mL centrifuge tube, and centrifuged at 1000 rpm for 5 minutes at 24° C. After centrifugation, the cells are concentrated at the bottom of the centrifuge tube, and the supernatant is aspirated. Subsequently, 500 μL of cell culture medium is added, mixed thoroughly, and the cells are resuspended. A 20 μL cell suspension is then withdrawn, and the cell count is determined using an automatic cell counter, which is used to estimate the total number of cells in the centrifuge tube. The estimated number of cells is then seeded back into the T-75 cell culture flask.
# In some embodiments, the HFL-1 cell line of the present disclosure is purchased from BCRC, and is commonly used for co-culture and cytotoxicity studies. The cells are cultured in F12K cell culture medium (10-025, Corning) supplemented with 10% fetal bovine serum (FBS) (35-076-EV, Corning). The cells are removed from the liquid nitrogen tank and thawed in a 37° C. water bath. […] A 20 μL cell suspension is then withdrawn, and the cell count is determined using an automatic cell counter to estimate the total number of cells in the centrifuge tube. […]
# [2] = test system: cell spheroids (A549); assay: Effect of TGF-β on spreading and metastasis of cell spheroids cultured on the hydrogel; format: cell-based, human
# Protocol: In some embodiments, the present disclosure uses Ultra-Low Attachment (ULA) 96-well plates (7007, Corning) to conduct in vitro 3D cell spheroid cultures. The ULA 96-well plates feature an extremely low attachment surface that minimizes cell adhesion and protein absorption, facilitating the formation of cell spheroids. In each well of the ULA 96-well plate, 1000 to 8000 cells (with each well containing 200 μL of cell culture medium) are added, and the morphological changes of the cells are observed. After four days of cell seeding, compact cell spheroids are formed.
# In some embodiments, before seeding cell spheroids, the chip is irradiated with ultraviolet (UV) light for 30 minutes and washed with filtered 75% alcohol, 95% alcohol, and deionized water, respectively. […]
# In some embodiments, Image-J software is used to perform quantitative analysis of the cell spheroid spreading area. […] The spreading area of cell spheroids is then quantitatively analyzed.
# After culturing on the hydrogel for 48 hours, the development of the cell spheroids is observed using a fluorescence microscope. […] The original cell spheroids display red fluorescence indicating the expression of vimentin. […] “Top view” and “side view” refer to the respective perspectives, and the green fluorescence labels F-actin.
Compound,"shape of cell spheroids after drug treatment ([1]; Dox 0, 40, 90 and 320 μM, 48 hours, on chip, FIG. 10A/10B)","area of tumor spheroids (quantitative analysis) ([1]; Dox 0, 40, 90 and 320 μM, FIG. 10C/10D)","therapeutic effect on static tumor spheroids (summary) ([1]; static tumor spheroids, single drug)","outward expansion and migration of cells in the cell spheroids (spreading area) ([2]; 20 ng/ml TGF-β, 48 hours on hydrogel, versus untreated, FIG. 3B/3C)","structure of cell spheroids ([2]; prolonged TGF-β treatment, FIG. 3D)"
COc1cccc2c1C(=O)c1c(O)c3c(c(O)c1C2=O)C[C@@](O)(C(=O)CO)C[C@@H]3O[C@H]1C[C@H](N)[C@H](O)[C@H](C)O1 [Dox],maintain their original shape,no significant decrease,no therapeutic effect,–,–
transforming growth factor-beta [TGF-β],–,–,–,increased outward expansion and migration range,disaggregate and expand outward
